≈ marks a conversion by molar mass, not a printed value. Read-outs that look alike come from different tables or passages of the source.
Assays:
[1] = test system: Staphylococcus aureus NCTC 13373 (mecA-positive; methicillin-resistant); assay: In vitro antibacterial activity, MIC (UCL School of Pharmacy assay), MRSA; format: cell-based; settings: for MIC: Staphylococcus aureus
Summary of the method: (§1)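 Each organism was taken from overnight tryptone soya agar, suspended in PBS at A600 0.1, diluted 1:100 in isosensitest broth and added to serially diluted compound (32 to 0.03 μg/mL).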

[2] = test system: S. aureus ATCC 25923 (methicillin-susceptible); assay: In vitro antibacterial activity, MIC (UCL), MSSA; format: cell-based, Staphylococcus aureus; settings: for MIC: Staphylococcus aureus
Summary of the method: as §1

Aqueous solubility = format: physicochemical; settings: for solubility: thermodynamic from solid
Source text: To guide our initial SAR exploration work, we obtained liver microsomal intrinsic clearance data for 5 of the 18 compounds assayed by CO-ADD (Supporting Information - CDCO Report and Supporting Information - Biology). We then acquired intrinsic clearance (CLint), plasma protein binding (PPB), and solubility data on further compounds throughout the SAR campaign (Supporting Information - Biology, Tables S3 and S4). […] The more polar compounds (lower LogD) had reduced PPB and were more metabolically stable.
(§2) Table S4. ADME and Pharmacokinetics: compounds only appearing in the Supplementary […]
(§3) MRSA Aqueous HLM CLint Rat Hep CLint
(§4) Cmpd MIC Solubility Human PPB (%) (µL/min/mg (µL/min/10x6 LogD7.4
(§5) (µg/mL) (µM) protein) cells)
(§6) ADME and toxicity for compounds were measured according to procedures outlined in the manuscript submitted in parallel to this one;2 other procedures were used for those compounds analysed by Monash University (in vitro ADME) or UCL (toxicity), both described in the main

[3] = Human plasma protein binding (PPB); format: in vitro ADME; settings: human, plasma
Source text: (§7) To guide our initial SAR exploration work, we obtained liver microsomal intrinsic clearance data for 5 of the 18 compounds assayed by CO-ADD (Supporting Information - CDCO Report and Supporting Information - Biology). We then acquired intrinsic clearance (CLint), plasma protein binding (PPB), and solubility data on further compounds throughout the SAR campaign (Supporting Information - Biology, Tables S3 and S4).
as §2, §3, §4, §5, §6

[4] = Human liver microsome intrinsic clearance; format: in vitro ADME
Source text: as §7, §2, §3, §4, §5, §6

[5] = Rat hepatocyte intrinsic clearance; format: in vitro ADME
Source text: as §7, §2, §3, §4, §5, §6

[6] = test system: MRC-5SV2 (human lung fibroblast cell line); assay: Toxicity against MRC-5SV2; format: cell-based
Description: as §6

[7] = test system: PMM (primary mouse macrophages); assay: Toxicity against PMM; format: cell-based
Description: as §6

[8] = test system: Enterococcus faecalis ATCC 51299 (vanA-positive; vancomycin-resistant); assay: In vitro antibacterial activity, MIC (UCL), VRE; format: cell-based
Summary of the method: as §1

VSE = assay: In vitro antibacterial activity, MIC, VSE; format: cell-based
[9] = human plasma, NEU, read-out: Human PPB (NEU) (converted)
[10] = NEU, read-out: Aqueous Solubility (NEU)
[11] = rat hepatocytes, NEU, read-out: Rat Hep CLint (NEU)
[12] = human liver microsomes, NEU, read-out: HLM CLint (NEU)
[13] = read-out: Human PPB (converted)
[14] = human, liver microsomes, read-out: HLM CLint
[15] = rat, hepatocytes, Figure 4, read-out: Rat Hep CLint

MIC ([1]; UCL, read-out: MRSA MIC (UCL)) [µg/mL]	MIC ([2]; read-out: MSSA MIC (UCL)) [µg/mL]	MIC ([8]; read-out: VRE MIC (UCL)) [µg/mL]	fraction unbound [3, 9]	HLM CLint (NEU) ([4]; human liver microsomes, NEU) [uL/min/mg protein]	Rat Hep CLint (NEU) ([5]; rat hepatocytes, NEU) [uL/min/10x6 cells]	SMILES	MRC5 TC50 ([6]; MRC5 cells) [µM]	PMM TC50 ([7]; PMM) [µM]	also measured
–	–	–	–	–	–	CC(=O)N(c1ccc(F)cc1)c1c(-c2ccccn2)nc2ccccn12 [OSA_001021]	64	64	MIC ([1]; UCL assay, read-out: MRSA MIC (ug/mL) (UCL)): > 32 µg/mL; MIC ([2]; UCL assay, read-out: MSSA MIC (ug/mL) (UCL)): > 32 µg/mL; solubility (Aqueous solubility; NEU, read-out: Aqueous Solubility (uM) (NEU)): 10 µM (≈ 3.46 µg/mL); fraction unbound ([3]; human plasma, NEU, read-out: Human PPB (%) (NEU) (converted)): 0.17; HLM CLint (uL/min/mg protein) (NEU) ([4]; human liver microsomes, NEU): 19.8 uL/min/mg protein; Rat Hep CLint (uL/min/10x6 cells) (NEU) ([5]; rat hepatocytes, NEU): 81.2 uL/min/10x6 cells
> 32	32 (≈ 103 µM)	> 32	–	–	–	N#CCc1ccc(-n2c(-c3ccccn3)nc3ccccc32)cc1 [OSA_000996]	64	64	MIC (VSE; read-out: VSE MIC (UCL)): > 32 µg/mL
2 (≈ 5.55 µM)	4 (≈ 11.1 µM)	8 (≈ 22.2 µM)	0.0042	58.8	234	CC(C)CN(c1ccc(F)cc1)c1c(-c2ccccn2)nc2ccccn12 [OSA_000983]	54	23	Aqueous Solubility (NEU) (Aqueous solubility; NEU): 8 µM
–	–	–	–	–	–	COc1ccc2nc(-c3ccccn3)c(N(C)c3cc(F)cc(F)c3)n2c1 [compound 998]	–	–	MRSA MIC [1]: 8 µg/mL; MSSA MIC [2]: 8 µg/mL; VRE MIC [8]: 32 µg/mL; VSE MIC (VSE): 16 µg/mL
4 (≈ 11.5 µM)	4 (≈ 11.5 µM)	8 (≈ 23 µM)	0.02	251	–	COc1ccc2nc(-c3ccccn3)c(N(C)c3ccc(F)cc3)n2c1 [OSA_000980]	2	8	solubility (Aqueous solubility; [10]): 17 µM (≈ 5.92 µg/mL); hepatocyte CLint [5, 11]: > 300 µL/min/1e6 cells
> 32	> 32	> 32	–	–	–	OC1CCn2c1nc(-c1ccccn1)c2-c1ccc2occc2c1 (stereo not drawn) [compound 997]	–	–	activity against MRSA, in words [1]: inactive; MIC ([1]; 16 h, read-out: MRSA MIC): > 32 µg/mL; MIC ([1]; read-out: MRSA MIC): > 32 µg/mL; MIC ([2]; read-out: MSSA MIC): > 32 µg/mL; MIC ([8]; read-out: VRE MIC): > 32 µg/mL; MIC (VSE; read-out: VSE MIC): > 32 µg/mL; MIC (VSE; read-out: VSE MIC (UCL)): > 32 µg/mL
–	–	–	–	–	–	c1ccc(-c2nc3ccccc3n2-c2ccc3occc3c2)nc1 [compound 991]	–	–	MSSA MIC [2]: > 32 µg/mL; VRE MIC [8]: > 32 µg/mL; VSE MIC (VSE): > 32 µg/mL; MRC5 TC50 [6]: 19.9 µg/mL; PMM TC50 [7]: 12.0 µg/mL
8 (≈ 29.1 µM)	–	32 (≈ 116 µM)	0.061	76.1	62.5	Cc1cccc(-c2c(-c3ccccn3)nc3n2CCC3)c1 [OSA_000976]	–	–	solubility (Aqueous solubility; [10]): 556 µM (≈ 153 µg/mL)
2 (≈ 6.02 µM)	2 (≈ 6.02 µM)	8 (≈ 24.1 µM)	0.022	180	–	CCN(c1ccc(F)cc1)c1c(-c2ccccn2)nc2ccccn12 [OSA_000981]	4.9	8	solubility (Aqueous solubility; [10]): 31 µM (≈ 10.3 µg/mL); hepatocyte CLint [5, 11]: 148 µL/min/1e6 cells
> 32	–	> 32	0.45	<3	<1	C[S+]([O-])c1ccc(-c2c(-c3ccccn3)nc3n2CCC3)cc1 (stereo not drawn) [OSA_000838]	–	–	Aqueous Solubility (NEU) (Aqueous solubility; NEU): 756 µM
2 (≈ 5.58 µM)	2 (≈ 5.58 µM)	4 (≈ 11.2 µM)	0.0067	–	141	Fc1ccc(N(CC2CC2)c2c(-c3ccccn3)nc3ccccn23)cc1 [OSA_000979]	7.8	4	solubility (Aqueous solubility; [10]): 2 µM (≈ 0.717 µg/mL); microsomal CLint [4, 12]: 105 µL/min/mg
> 32	–	> 32	0.55	<3	<1	CN(C)C(=O)c1ccc(-c2c(-c3ccccn3)nc3n2CCC3)cc1 [OSA_000974]	–	–	Aqueous Solubility (NEU) (Aqueous solubility; NEU): 782 µM
> 32	> 32	> 32	–	–	–	Fc1cc(-c2c(-c3ccccn3)nc3ccccn23)ccn1 [OSA_000986]	–	–	MIC (VSE; read-out: VSE MIC (UCL)): > 32 µg/mL
–	–	–	–	–	–	Clc1ccn2c(-c3ccc4occc4c3)c(-c3ccccn3)nc2c1 [compound 985]	–	–	MRSA MIC [1]: 8 µg/mL; MSSA MIC [2]: 8 µg/mL; VRE MIC [8]: 16 µg/mL; VSE MIC (VSE): 16 µg/mL
2 (≈ 5.77 µM)	2 (≈ 5.77 µM)	4 (≈ 11.5 µM)	0.0073	61.8	108	CCCN(c1ccc(F)cc1)c1c(-c2ccccn2)nc2ccccn12 [OSA_000982]	4.3	2	Aqueous Solubility (NEU) (Aqueous solubility; NEU): 3 µM
–	–	–	–	–	–	COc1ccnc(-c2nc3cc(OC)ccn3c2N(C)c2ccc(F)cc2)c1 [compound 1000]	–	–	MRSA MIC [1]: 2 µg/mL; MSSA MIC [2]: 8 µg/mL; VRE MIC [8]: 8 µg/mL; VSE MIC (VSE): 8 µg/mL
> 32	–	> 32	0.24	43.7	23.2	N#Cc1cccc(-c2c(-c3ccccn3)nc3n2CCC3)c1 [OSA_000864]	–	–	solubility (Aqueous solubility; [10]): 37 µM (≈ 10.6 µg/mL)
> 32	–	> 32	0.4	<3	<1	CS(=O)(=O)c1ccc(-c2c(-c3ccccn3)nc3n2CCC3)cc1 [OSA_000837]	–	–	Aqueous Solubility (NEU) (Aqueous solubility; NEU): 317 µM
8 (≈ 23.1 µM)	8 (≈ 23.1 µM)	16 (≈ 46.3 µM)	–	–	–	Clc1ccn2c(-c3ccc4occc4c3)c(-c3ccccn3)nc2c1 [OSA_000985]	–	–	MIC (VSE; read-out: VSE MIC (UCL)): 16 µg/mL (≈ 46.3 µM)
–	–	–	–	–	–	Cc1ccc(Nc2c(-c3ccccn3)nc3ccccn23)cc1 [compound 988]	–	–	MIC ([1]; read-out: MRSA MIC): 4 µg/mL (≈ 13.3 µM); MIC ([2]; read-out: MSSA MIC): 4 µg/mL (≈ 13.3 µM); MIC ([8]; read-out: VRE MIC): 16 µg/mL (≈ 53.3 µM); MIC (VSE; read-out: VSE MIC): 16 µg/mL (≈ 53.3 µM)
4 (≈ 13.5 µM)	–	16 (≈ 54.1 µM)	0.033	–	21.9	Clc1ccc(-c2c(-c3ccccn3)nc3n2CCC3)cc1 [OSA_000875]	5.45	8	solubility (Aqueous solubility; [10]): 4 µM (≈ 1.18 µg/mL); microsomal CLint [4, 12]: 168 µL/min/mg
–	–	–	–	–	–	Fc1ccc(-c2c(-c3ccccn3)nc3ccccn23)cn1 [compound 986]	–	–	activity against MRSA, in words [1]: inactive; MIC ([1]; read-out: MRSA MIC): > 32 µg/mL; MIC ([2]; read-out: MSSA MIC): > 32 µg/mL; MIC ([8]; read-out: VRE MIC): > 32 µg/mL; MIC (VSE; read-out: VSE MIC): > 32 µg/mL
8 (≈ 24.2 µM)	–	8 (≈ 24.2 µM)	0.015	100	37.7	Clc1ccc(-c2c(-c3ccccn3)nc3n2CCC3)cc1Cl [OSA_000876]	–	–	solubility (Aqueous solubility; [10]): 3 µM (≈ 0.991 µg/mL)
4 (≈ 14 µM)	–	16 (≈ 55.9 µM)	0.29	99.1	7.99	N#Cc1ccc(-c2c(-c3ccccn3)nc3n2CCC3)cc1 [OSA_000975]	25.9	64	Aqueous Solubility (NEU) (Aqueous solubility; NEU): 38 µM
–	–	–	–	–	–	CN(C)C(=O)c1ccc(-c2c(-c3ccccn3)nc3n2CCC3)cc1 [compound 974]	–	–	activity against MRSA, in words [1]: not tolerated; MIC ([1]; 16 h, read-out: MRSA MIC): > 32 µg/mL; MIC ([1]; read-out: MRSA MIC): > 32 µg/mL; MIC ([8]; read-out: VRE MIC): > 32 µg/mL; solubility (Aqueous solubility; read-out: Aqueous Solubility): 782 µM (≈ 260 µg/mL); fraction unbound [3, 13]: 0.55; microsomal CLint [4, 14]: < 3 µL/min/mg; hepatocyte CLint [5, 15]: < 1 µL/min/1e6 cells
–	–	–	–	–	–	CS(=O)(=O)c1ccc(-c2c(-c3ccccn3)nc3n2CCC3)cc1 [compound 837]	–	–	activity against MRSA, in words [1]: not tolerated; MIC ([1]; 16 h, read-out: MRSA MIC): > 32 µg/mL; MIC ([1]; read-out: MRSA MIC): > 32 µg/mL; MIC ([8]; read-out: VRE MIC): > 32 µg/mL; solubility (Aqueous solubility; read-out: Aqueous Solubility): 317 µM (≈ 108 µg/mL); fraction unbound [3, 13]: 0.4; microsomal CLint [4, 14]: < 3 µL/min/mg; hepatocyte CLint [5, 15]: < 1 µL/min/1e6 cells

From paper PMC10714399, “Open Source Antibiotics: Simple Diarylimidazoles Are Potent against Methicillin-Resistant Staphylococcus aureus” (ACS Infectious Diseases, 2023)
